Test results published in patent publication US20150299660A1, “DIFFERENTIATION OF HUMAN FIBROBLAST CELLS” (International Stem Cell Corporation, priority 2012, published 2015).

Tests used:
[1] = test system: MSC which have undergone osteogenesis; assay: Calcium / matrix deposition by MSC which have undergone osteogenesis, complex sugars in the media; type: cell-based; details: sugar in the media
Excerpt: (§1) As used herein, the terms “complex sugar” and “complex sugars” includes monomeric and polymeric sugar chains. The use of sugars as a supplement enhancing extracellular matrix deposition is a unique aspect to the present invention. They can also be specific for cell type. As an example, previous studies have shown mesenchymal stem for chondrogenesis using a similar formulation as disclosed in the present invention, but without glucosamine sulfate. […] In a surprising aspect the present invention discloses that the use of certain complex sugars in the media massively increases the accumulation of calcium derived from osteocytes while the use of other sugars actively suppresses the accumulation of calcium. […] Fibroblasts allowed to acquire a MSC like state require galactose, glucuronic acid and glucosamine sulfate for cartilage formation, while hyaluronic acid will repress it. Examples of sugars are hyaluronic acid, galactose, glucosamine sulfate, glucuronic acid, mannose, sialic acid, chondroitin sulfate and galactosamine.

[2] = test system: MSC which have under gone chondrogenesis; assay: Cartilage / matrix formation by MSC which have undergone chondrogenesis, complex sugars in the media; type: cell-based; details: sugar in the media
Excerpt: as §1

[3] = test system: Fibroblasts allowed to acquire a MSC like state; assay: Cartilage formation by fibroblasts allowed to acquire a MSC like state, complex sugars in the media; type: cell-based; details: sugar in the media
Excerpt: as §1
Fibroblast cells were grown in FibroLife S2 on standard tissue culture-treated plastic. Fibroblasts cells were plated at 20,000 cells/cm^2 and allowed the cells to grow to 80-90% confluence actively proliferating.
The cells were centrifuged and the cells resuspended at 2.5×10^7 cells/ml in 1.5% alignate solution. The cells in the alignate solution are loaded into a syringe and applied to a stirred 100 mM calcium chloride solution to form microbeads. After 10 minutes, the calcium chloride solution was removed and the microbeads transferred to a 48 well plate. The microbeads were washed twice with 0.5 ml ChondroLife Chondrogenesis media (Table 7). The plates were incubated at 37° C., 5% CO2. The media was changed every 2-3 days for 3 weeks.
To examine the growth of the chondrocytes, the microbeads were fixed, frozen in OCT compound, cut in 5 μM sections and mounted on glass slides. The microbeads were stained with Alcian Blue to detect the presence of sulfated proteoglycans.

[4] = test system: mesenchymal stem cells; details: shown previously; cited from earlier work
[5] = test system: human fibroblast cells; assay: Differentiation of human fibroblast cells into adipocytes (lipid accumulation, Oil Red O); type: cell-based; details: Troglitazone in combination with other elements
Method: Fibroblast cells were grown in FibroLife S2 on standard tissue culture-treated plastic. Fibroblasts cells were plated at 20,000 cells/cm^2 and allowed the cells to grow to confluence (roughly 80,000 cells/cm^2) in approximately 2 days. Once the cells reached confluence the cell culture media was changed to AdipoLife Complete DifFactor 1 media. The cell culture media continued to be changed every 2 days. After 4 days the cell culture media was changed to AdipoLife Complete DifFactor 2 media for 17 days. Lipid accumulation was visible after 5 days culture in the AdipoLife Complete DifFactor 2 media. After 3 weeks of culture the cells were stained with Oil Red O stained to assay for accumulated lipids

[6] = test system: fibroblasts; details: has been shown; cited from earlier work

Molecule	effect on calcium deposition / matrix formation [1]	effect on cartilage formation / matrix deposition [2]	effect on cartilage formation [3]	effect on matrix secretion [4]	surface of the human cell culture covered with lipid-accumulating cells [5] [%]	effect on matrix deposition [6]
O=C[C@H](O)[C@@H](O)[C@@H](O)[C@H](O)CO [galactose]	vastly increased amounts of calcium deposition	vastly augments cartilage formation	require	–	–	–
O=C[C@H](O)[C@@H](O)[C@H](O)[C@H](O)C(=O)O [glucuronic acid]	–	vastly augments cartilage formation	require	–	–	–
N[C@H]1C(O)O[C@H](CO)[C@@H](O)[C@@H]1O.O=S(=O)(O)O (some centres unmarked) [glucosamine sulfate]	vastly increased amounts of calcium deposition	repress matrix deposition	require	detrimental to matrix secretion	–	–
Cc1c(C)c2c(c(C)c1O)CCC(C)(COc1ccc(CC3SC(=O)NC3=O)cc1)O2 (centres unmarked) [Troglitazone]	–	–	–	–	≥ 70	–
hyaluronic acid	vastly increased amounts of calcium deposition	vastly augments cartilage formation	repress it	–	–	detrimental to matrix deposition
